Experimental data reported in patent US20100248223A1, “ASSESSING OUTCOMES FOR BREAST CANCER PATIENTS” (MAYO FOUNDATION FOR MEDICAL EDUCATION AND RESEARCH, priority 2006, published 2010).
Where two headings read alike, the source gives them in different places.

What was measured:
[1] = biological target: CYP2D6 enzyme system (Homo sapiens, UniProt P10635); details: classification from cited literature; cited from earlier work
[2] = test system: resected ER positive breast cancer; details: for 9 year RFS rate / 5-year DFS: node negative
From the text: Patients. […] Postmenopausal women with node-negative disease were required to have stage T1c or T2N0M0 cancer and could be any age, whereas women with node-positive disease were required to be at least 65 years of age with a tumor stage T1 (any N) or T2N1M0. […] Patients were surgically treated with either a modified radical mastectomy or breast conservative therapy including lumpectomy, axillary nodal dissection, and radiation therapy. The axillary dissection must have involved at least levels I and II and the examination of at least 6 axillary nodes. […] Postlumpectomy radiation therapy consisted of a total cumulative breast dose of 5040 cGy in 28 fractions, and those with axillary nodal involvement also received radiation to the axilla and supraclavicular regions. Patients were classified as ER positive if resected breast tissue contained ≧10 fmol of ER polypeptide/mg cytosol protein or was positive for ER polypeptide by an immunohistochemical assay. All patients were randomized within 6 weeks of definitive surgery.
Patients were stratified based on axillary lymph node status (0, 1-3, 4-9 vs. 10 or more), age (<65 years vs. >65), primary tumor size (<3 cm vs. >3 cm), ER status (10-49 fmol vs. 50 fmol or greater vs. positive by immunohistochemical assay), and extent of surgery (mastectomy vs. breast conservation therapy).
Study Design and End Points. One objective of this study was to examine the relationship between the HOXB13:IL-17BR expression ratio and clinical outcomes of relapse-free survival, disease-free survival, and overall survival. Relapse-free survival (RFS) was defined as the time from randomization to documentation of the first of the following events: any recurrence (local, regional or distant) of breast cancer, a contralateral breast cancer or death. When estimating the distribution of RFS, patients who developed a non-breast second primary cancer (other than squamous or basal cell carcinoma of the skin, carcinoma in situ of the cervix, or lobular carcinoma in situ of the breast) prior to the diagnosis of a breast event were censored on the day their second primary was diagnosed. Patients who were alive without a breast recurrence, contralateral breast cancer or a second non-breast primary cancer were censored at the date of their last disease evaluation. Disease-free survival (DFS) was defined as the time from randomization to documentation of the first of the following events: any recurrence (local, regional or distant) of breast cancer, a contralateral breast cancer, a second primary cancer, or death due to any cause. Patients who were alive without any of these events were censored at the date of their last disease evaluation. Overall survival (OS) was estimated as the time from registration to death due to any cause.
Relapse-free (RF) time was defined as the time from randomization to documentation of a breast event where a breast event is any recurrence (local, regional, or distant) of breast cancer or the documentation of contralateral breast cancer (including ductal carcinoma in situ). When estimating the distribution of RF time, patients who developed a non-breast second primary cancer (other than squamous or basal cell carcinoma of the skin, carcinoma in situ of the cervix, or lobular carcinoma in situ of the breast) prior to the diagnosis of a breast event were censored on the day their second primary was diagnosed. Patients (alive or dead) without a breast recurrence, contralateral breast cancer or a second non-breast primary cancer were censored at the date of their last disease evaluation.
Disease-free survival (DFS) was defined as the time from randomization to documentation of the first of the following events: any recurrence (local, regional or distant) of breast cancer, the documentation of contralateral breast cancer, or death due to any cause.

[3] = patients with gene expression data (n=206), oral tamoxifen 20 mg daily for 5 years

Chain of CYP2D6 enzyme system (P10635 whole entry): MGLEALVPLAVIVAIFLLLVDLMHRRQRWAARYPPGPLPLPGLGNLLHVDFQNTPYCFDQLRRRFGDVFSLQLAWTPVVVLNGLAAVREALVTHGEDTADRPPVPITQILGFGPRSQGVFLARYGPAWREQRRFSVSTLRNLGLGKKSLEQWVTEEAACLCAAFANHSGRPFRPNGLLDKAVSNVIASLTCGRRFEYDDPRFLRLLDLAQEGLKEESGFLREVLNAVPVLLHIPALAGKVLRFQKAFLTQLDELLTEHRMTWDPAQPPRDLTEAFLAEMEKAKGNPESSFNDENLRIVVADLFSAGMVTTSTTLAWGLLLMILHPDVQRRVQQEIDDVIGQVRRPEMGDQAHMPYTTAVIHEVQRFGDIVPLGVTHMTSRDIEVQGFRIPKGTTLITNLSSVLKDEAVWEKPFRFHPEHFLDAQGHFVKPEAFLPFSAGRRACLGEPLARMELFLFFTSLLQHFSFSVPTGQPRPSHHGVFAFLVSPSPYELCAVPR

For `CN/C(=N/CCSCc1nc[nH]c1C)NC#N` [cimetidine], the “strength of inhibition of the CYP2D6 enzyme system” value [1] is given as “moderate”.

For `CN(C)CCC=C1c2ccccc2COc2ccccc21` [doxepin], the “strength of inhibition of the CYP2D6 enzyme system” value [1] is listed as “moderate”.

For `O=C(CCCN1CCC(O)(c2ccc(Cl)cc2)CC1)c1ccc(F)cc1` [haloperidol], the “strength of inhibition of the CYP2D6 enzyme system” value [1] is listed as “moderate”.

In the case of `Fc1ccc([C@@H]2CCNC[C@H]2COc2ccc3c(c2)OCO3)cc1` [paroxetine], the “strength of inhibition of the CYP2D6 enzyme system” value [1] is given as “potent”.

For `CN[C@H]1CC[C@@H](c2ccc(Cl)c(Cl)c2)c2ccccc21` [sertraline], the “strength of inhibition of the CYP2D6 enzyme system” value [1] is given as “moderate”.

In the case of `CC/C(=C(\c1ccccc1)c1ccc(OCCN(C)C)cc1)c1ccccc1` [tamoxifen], the “patients reporting mild (grade 1) hot flashes” value (223 patients) was 40%, the “patients reporting moderate (grade 2) hot flashes” value (223 patients) was 15% and the “patients reporting severe (grade 3) hot flashes” value (223 patients) was 5%. For the same compound, the “% of patients who developed moderate or severe hot flashes” value (CYP2D6 (*4) *4/Wt genotype) was 9/40 (23%), the “% of patients who developed moderate or severe hot flashes” value (CYP2D6 (*4) Wt/Wt genotype) was 27/137 (20%) and the “% of patients who developed moderate or severe hot flashes” value (CYP2D6 *4/WT or WT/WT genotypes (n=177)) was 20%. The “% of patients who developed moderate or severe hot flashes” value (CYP3A5 (*3) A/A genotype) was 1/6 (17%), the “% of patients who developed moderate or severe hot flashes” value (CYP3A5 (*3) G/A genotype) was 6/24 (25%) and the “% of patients who developed moderate or severe hot flashes” value (CYP3A5 (*3) G/G genotype) was 37/175 (21%). For the same compound, the “9 year RFS rate” value ([2]; Goetz index high risk) was 46%, the “9 year RFS rate” value ([2]; Goetz index intermediate risk) was 65% and the “9 year RFS rate” value ([2]; Goetz index low risk) was 87%. The “5-year DFS” value ([2]; risk profile 1: 2-gene ratio <−1.339, CYP2D6 extensive) was 94%, the “5-year DFS” value ([2]; risk profile 3: 2-gene ratio >−1.339, CYP2D6 extensive) was 83% and the “5-year DFS” value ([2]; risk profile 4: 2-gene ratio >−1.339, CYP2D6 decreased) was 57%. For the same compound, the “Kaplan-Meier estimate for the 5 year DFS” value [2, 3] was 74.3%, the “Kaplan-Meier estimate for the 5 year OS” value [2, 3] was 78.2% and the “Kaplan-Meier estimate for the 5 year RFS” value [2, 3] was 75.6%.
